Laboratory results: patent US6939876B2, “Prevention of addiction in pain management” (priority 2001, dated 2005)

Experiments:
[1] = test system: extracellular DA concentrations in the nucleus accumbens (NAcc); test: In vivo microdialysis: morphine-induced extracellular DA in the nucleus accumbens of freely moving rats; set-up: species or system Sprague-Dawley rats
Description: The effects of increased endogenous GABA activity on morphine-induced extracellular DA concentrations in the nucleus accumbens (NAcc) of freely moving rats was explored.
All animals there used under an IACUC-approved protocol and with strict adherence to the NIH guidelines. Adult male Sprague-Dawley rats (200-300 g, Taconic Farms), housed in the animals care facility under 12:12 light/dark conditions, were placed into 6 groups (n=3-6), anesthetized and siliconized guide cannulae were stereotactically implanted into the right NAcc (2.0 mm anterior and 1.0 mm lateral to bregms, and 7.0 mm ventral to the cortical surface) and prefrontal cortex (PFC) at least 4 days prior to study. Microdialysis probes (2.0 mm, Bioanalytical Systems, BAS, West Lafayette. Ind.) were positioned within the guide cannulae and artificial cerebrospinal fluid (ACSF. 155.0 mM NA^−, 1.1 mM Ca^2−, 2.9 mM K^−, 132.76 mM Cl^−, and 0.83 mM Mg^2−) was administered through the probe using a CMA/100 microinfusion pump (BAS) at a flow rate of 2.0 μl/min.
Animals were placed in bowls, and probes were inserted and flushed with ACSF overnight. On the day of the study. a minimum of three samples were injected to determine baseline stability. Samples were collected for 20 min. and injected on-line (CMA/160, BAS). The average dopamine concentration of these three stable samples was defined as control (100%). and all subsequent treatment values were transformed to a percentage of that control. Upon establishing a stable baseline, the morphine was administered by intraperitoneal (i.p.) injection. The high performance liquid chromatography (HPLC) system consists of a BAS reverse-phase column (3.0 μC-18), a BAS LC-4C electrochemical transducer with a dual/glassy carbon electrode set at 650 mV, a computer that analyzes data on-line using a commercial software package (Chromograph Bioanalytical Systems), and a dual pen chart recorder. The mobile phase (flow rate 1.0 ml/min) consisted of 7.0% methanol, 50 mM sodium phosphate monobasic, 1.0 mM sodium octyl sulfate, and 0.1 mm […], pH 4.0. DA eluted at 7.5 min.
Gamma-vinyl GABA (GVG), an irreversible inhibitor of GABA-transaminase, was administered by intraperitoneal injection 2.5 hours prior to morphine (7 mg/kg). In all studies, animals were placed in the microdialysis bowls the night before the experiment and artificial cerebrospinal fluid (ACSF) was perfused through the microdialysis probes at a flow rate of 2.0 μl/min. At the end of each study, animals were sacrificed and their brains were removed and sectioned for probe placement verification
Levels of extracellular DA were sampled from the NAcc continuously using a stereoaxically implanted probe. Morphine alone increases DA concentrations 50% above baseline in the NAcc (p<0.01, T=3.79).

male Sprague-Dawley rats [2] = test: Hot plate test (53 degrees Centigrade), latency to forepaw licking; type: in vivo; conditions: for Licking latency: mean ± S.E.M., 10 rats
Method: The effect of GVG on the analgesic potency of morphine in male Sprague-Dawley rats was examined using the hot plate test. In this paradigm, animals are treated and placed on a hot plate at a temperature of 53 degrees Centigrade and the latency to licking of one of the forepaws was measured. This test is used as screen for agents that have moderate to significant analgesic action as these drugs will increase latency to forepaw licking.
The rats were treated with either vehicle or GVG 2.5 hours prior to receiving either vehicle or morphine. Animals were given either vehicle or morphine 30 minutes prior to placing them on a hot plate at a constant temperature of 53 degrees Centigrade. Analgesic potency was assessed by measuring the latency to forepaw licking after placement on the hot plate. A total of 10 rats were examined for each treatment group.

male Sprague-Dawley rats [3] = test: Heroin-induced conditioned place preference (CPP), expression phase; type: in vivo; conditions: for Time spent in chambers, Paired / Time spent in chambers, Unpaired: mean ± S.E.M.
Description: In all rodent studies, male Sprague-Dawley rats were used (200-225 g. Taconic farms, Germantown, N.Y.). Animals were allowed to acclimate to the animal housing facility for at least 5 days prior to beginning the experiments. Conditioned place preference (CPP) chambers were used as previously described (Lepore et al., 1995), except instead of one chamber being entirely white and the other black, one chamber was entirely light blue with a stainless steel floor and the second chamber was light blue with horizontal black stripes (2.5 cm wide) spaced 3.8 cm apart with a smooth plexiglass floor. In all CPP studies with GVG, the saline volume was (1 ml/kg), and the heroin doses were 1.5 mg/kg. The saline, heroin and GVG were all injected intraperitonealy (i.p.). The conditioning procedure for the acquisition phase consisted of 12 sessions carried out consecutively over 12 days.
The CPP pairings were: 1) saline/saline 2) saline/heroin 3) GVG/saline 4) saline/heroin and GVG. The animals in each group were randomly assigned to a 2×2 factorial design ,with one factor being the pairing chamber and the other factor being the order of conditioning. The animals that received either saline or heroin were injected and confined to the appropriate compartment for 30 minutes. The GVG injections were given 3 hours before saline or heroin injection and subsequent placement of the animals in the appropriate chamber. This was done as it has been shown that GABA levels reach maximal values 3 to 4 hours following GVG administration.
On the test day (day 12), neither drugs nor saline were administered and the animal was allowed to move freely between both chambers for fifteen minutes. The amount of time spent in each chamber was recorded using an automated infrared beam electronically coupled to a timer. For the expression phase of CPP to heroin, the animals were habituated and conditioned to heroin as described in the acquisition studies, but no animals in the expression studies were given GVG on conditioning days. On the test day (day 12), the animals being tested in the expression phase, unlike the animals in the acquisition phase, received either saline or GVG 2.5 hours before they were placed in the apparatus and allowed free access to both chambers for 15 minutes.

[4] = pairing Vehicle/Heroin (heroin 1.5 mg/kg i.p.), vehicle on test day
[5] = pairing Vehicle/Heroin, GVG 300 mg/kg on test day (2.5 h before test)
[6] = pairing Vehicle/Vehicle, GVG 300 mg/kg on test day

`CN1CC[C@]23c4c5ccc(O)c4O[C@H]2[C@@H](O)C=C[C@H]3[C@H]1C5` [Morphine, morphine] was tested, and the “Increase of DA concentrations above baseline in the NAcc” value ([1]; morphine alone, 7 mg/kg i.p., baseline = 100%, p<0.01) was 50% and the Licking latency (male Sprague-Dawley rats [2]; pretreatment vehicle 1 ml/kg, treatment morphine 10 mg/kg 30 min before hot plate) was 27 ± 3.0 s.
`CC(=O)Oc1ccc2c3c1O[C@H]1[C@@H](OC(C)=O)C=C[C@H]4[C@@H](C2)N(C)CC[C@@]341` [Heroin, heroin] was tested, and the “Time spent in chambers, Paired” value (male Sprague-Dawley rats [3]; [4]) was 10.9 ± 0.4 min and the “Time spent in chambers, Unpaired” value (male Sprague-Dawley rats [3]; [4]) was 4.1 ± 0.4 min.
In the case of `C=CC(N)CCC(=O)O` (stereo not drawn) [GVG, 4-amino-5-hexanoic acid], the “Inhibition of the DA response to morphine in the NAcc” value ([1]; GVG 150 mg/kg i.p. 2.5 hours prior to morphine 7 mg/kg) is reported as “no significant inhibition”, the “Attenuation of the DA response to morphine in the NAcc” value ([1]; GVG 300 mg/kg i.p. 2.5 hours prior to morphine 7 mg/kg, p<0.01) is reported as 62% and the “Attenuation of the DA response to morphine in the NAcc” value ([1]; GVG 500 mg/kg i.p. 2.5 hours prior to morphine 7 mg/kg, p<0.001) is reported as 67%. The “Effect of GVG on the analgesic potency of morphine” value (male Sprague-Dawley rats [2]; GVG 300 mg/kg i.p. 2.5 hrs prior to morphine 10 mg/kg i.p.) was “does not alter the analgesic potency of morphine”, the Licking latency (male Sprague-Dawley rats [2]; pretreatment GVG 300 mg/kg (2.5 h before), treatment morphine 10 mg/kg) was 27 ± 2.9 s and the Licking latency (male Sprague-Dawley rats [2]; pretreatment GVG 300 mg/kg (2.5 h before), treatment vehicle 1 ml/kg) was 17 ± 1.4+ sec. The “Effect on expression of heroin-induced CPP” value (male Sprague-Dawley rats [3]; GVG 300 mg/kg on test day) was “blocked the expression of heroin-induced CPP”, the “Time spent in chambers, Paired” value (male Sprague-Dawley rats [3]; [5]) was 6.6 ± 0.7 min and the “Time spent in chambers, Unpaired” value (male Sprague-Dawley rats [3]; [5]) was 8.4 ± 0.7 min. The “Time spent in chambers, Paired” value (male Sprague-Dawley rats [3]; [6]) was 7.4 ± 0.3 min and the “Time spent in chambers, Unpaired” value (male Sprague-Dawley rats [3]; [6]) was 7.6 ± 0.3 min.
